Source: paper PMC10179460, “Computational and Enzymatic Studies of Sartans in SARS-CoV-2 Spike RBD-ACE2 Binding: The Role of Tetrazole and Perspectives as Antihypertensive and COVID-19 Therapeutics” (International Journal of Molecular Sciences, 2023)

Target: T1, ACE2 (angiotensin-converting enzyme 2) (Homo sapiens, UniProt Q9BYF1)
T1 construct: recombinant human ACE2, His-tag and Strep-tag, from Sf9 insect cells
Assay: SPR (Biacore T200, immobilized ACE2, […] kinetic model)
Type: binding

T1 sequence (Q9BYF1 18-805): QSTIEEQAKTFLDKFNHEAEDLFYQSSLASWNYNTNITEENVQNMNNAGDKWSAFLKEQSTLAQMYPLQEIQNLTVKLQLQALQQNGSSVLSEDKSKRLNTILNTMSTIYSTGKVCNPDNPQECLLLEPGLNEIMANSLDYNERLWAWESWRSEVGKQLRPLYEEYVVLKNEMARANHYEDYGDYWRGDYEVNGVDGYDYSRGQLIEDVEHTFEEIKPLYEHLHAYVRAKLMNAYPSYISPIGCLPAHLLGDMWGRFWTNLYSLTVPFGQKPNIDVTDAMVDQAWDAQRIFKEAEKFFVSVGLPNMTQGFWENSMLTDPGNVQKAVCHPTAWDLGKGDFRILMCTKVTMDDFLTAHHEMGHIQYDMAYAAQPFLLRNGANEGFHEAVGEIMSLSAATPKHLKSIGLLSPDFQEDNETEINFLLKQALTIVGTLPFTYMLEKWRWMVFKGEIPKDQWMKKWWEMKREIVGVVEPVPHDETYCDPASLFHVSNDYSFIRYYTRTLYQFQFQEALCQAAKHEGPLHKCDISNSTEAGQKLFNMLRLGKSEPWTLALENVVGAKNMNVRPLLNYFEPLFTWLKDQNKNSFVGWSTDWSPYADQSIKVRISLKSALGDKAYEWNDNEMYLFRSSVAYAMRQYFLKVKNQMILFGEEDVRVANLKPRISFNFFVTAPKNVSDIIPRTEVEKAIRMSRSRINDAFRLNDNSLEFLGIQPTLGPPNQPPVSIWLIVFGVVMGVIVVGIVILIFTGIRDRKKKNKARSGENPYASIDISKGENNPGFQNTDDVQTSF

Structure (SMILES): CCCCc1nc(Cl)c(CO)n1Cc1ccc(-c2ccccc2-c2nn[nH]n2)cc1 [losartan]
- Kd: 13.7 nM
